Earlier results as cited in US6352152B1, “Method and package for storing a pressurized container containing a drug” (Smithkline Beecham Corporation, priority 1998, dated 2002).

Conditions: Pischtiak 1999, Solvay chemical data sheet

Row | maximum water solubility in the propellant | SMILES
1 | about 130 ppm | FC(F)(Cl)C(F)(F)Cl [CFC 114]
2 | about 2200 ppm | FCC(F)(F)F [HFC 134a, 1,1,1,2-tetrafluoroethane]

Row | SMILES | maximum water solubility in the propellant
3 | FC(F)(Cl)Cl [CFC 12] | about 130 ppm
